Test results reported in ChEMBL document CHEMBL1139607, “Synthetic lanostane-type triterpenoids as inhibitors of DNA topoisomerase II” (Bioorg Med Chem Lett, 2005).

How the values were obtained:
A549 = assay: Effective dose on human lung carcinoma (A549) cells; assay type: functional; settings: read-out: ED50 (the source's name)
DNA topoisomerase II = DNA topoisomerase II (Homo sapiens, UniProt P11388+Q02880); assay: Inhibitory concentration against human DNA topoisomerase II; assay type: protein assay

| Structure (SMILES) | EC50 (A549) [µM] | IC50 (DNA topoisomerase II) [µM] |
| --- | --- | --- |
| COC1=C[C@]2(C)C3=CC[C@]4(C)[C@@H]([C@H](C)CC[C@@H](O)C(C)(C)O)CC[C@]4(C)C3CCC2C(C)(C)C1=O (some centres not stated) | 29.6 | 22.7 |
| C[C@H](CC[C@@H](O)C(C)(C)O)[C@H]1CC[C@]2(C)C3CCC4C(C)(C)C(=O)C(C(=O)O)=C[C@]4(C)C3=CC[C@]12C (some centres not stated) | 7.33 | 23.8 |
| COC(=O)C1=C[C@]2(C)C3=CC[C@]4(C)[C@@H]([C@H](C)CC[C@@H](O)C(C)(C)O)CC[C@]4(C)C3CCC2C(C)(C)C1=O (some centres not stated) | 3.96 | 66.51 |
| C[C@H](CC[C@@H](O)C(C)(C)O)[C@H]1CC[C@]2(C)C3CCC4C(C)(C)C(=O)C=C[C@]4(C)C3=CC[C@]12C (some centres not stated) | 26.9 | 149.97 |
| COc1cc([C@@H]2c3cc4c(cc3[C@@H](O[C@@H]3O[C@@H]5CO[C@@H](C)O[C@H]5[C@H](O)[C@H]3O)[C@H]3COC(=O)[C@H]23)OCO4)cc(OC)c1O [ETOPOSIDE] | 3.39 |  |

The remaining lines, values ahead:

| EC50 (A549) [µM] | IC50 (DNA topoisomerase II) [µM] | Structure (SMILES) |
| --- | --- | --- |
| 38.1 | 106.8 | C[C@H](CC[C@@H](O)C(C)(C)O)[C@H]1CC[C@]2(C)C3CCC4C(C)(C)C(=O)C(Cl)=C[C@]4(C)C3=CC[C@]12C (some centres not stated) |
| 13.1 | 1.86 | C[C@H](CC[C@@H](O)C(C)(C)O)[C@H]1CC[C@]2(C)C3CCC4C(C)(C)C(=O)C(C=O)=C[C@]4(C)C3=CC[C@]12C (some centres not stated) |
| 25.5 | 83.23 | C[C@H](CC[C@@H](O)C(C)(C)O)[C@H]1CC[C@]2(C)C3CCC4C(C)(C)C(=O)C(C#N)=C[C@]4(C)C3=CC[C@]12C (some centres not stated) |
| 14.3 | 18.27 | C[C@H](CC[C@@H](O)C(C)(C)O)[C@H]1CC[C@]2(C)C3CCC4C(C)(C)C(=O)C(Br)=C[C@]4(C)C3=CC[C@]12C (some centres not stated) |
